Assay results taken from PMC8831520, “Small molecule SWELL1 complex induction improves glycemic control and nonalcoholic fatty liver disease in murine Type 2 diabetes” (Nature Communications, 2022).

Legend:
SWELL1 protein = tested on: T1, SWELL1 protein; assay: SWELL1 protein in skeletal muscle and liver of treated T2D mice; assay type: in vivo, mouse
T1 construct: from tissue; host or cells: soleus muscle of HFD-T2D mice; liver of T2D KKA^y mice
Experimental: Adipocytes were washed twice in ice-cold phosphate buffer saline and lysed in RIPA buffer (150 mM NaCl, 20 mM HEPES, 1% NP-40, 5 mM EDTA, pH 7.4) with proteinase/phosphatase inhibitors (Roche). The cell lysate was further sonicated in 10 s cycle intervals 2–3 times and centrifuged at 18,407×g for 30 min at 4 °C and repeated one more time to remove the excess fat. The supernatant was collected and further estimated for protein concentration using a DC protein assay kit (Bio-Rad). Fat and liver tissues were homogenized and suspended in RIPA buffer with inhibitors and further processed in a similar fashion as described above. HUVECs were also prepared in a similar fashion except the lysates were spun only once to remove the cells debris to obtain the clear supernatant. For islets, either human or mouse islets were washed twice with phosphate buffer saline (PBS) and lysed using RIPA buffer containing protease and phosphatase inhibitors. The lysate was further clarified by freezing in liquid nitrogen for about 10 s for three cycles. The supernatant was collected from the whole lysate centrifuged at 16,260×g for 20 min at 4 °C. […] The images were further analyzed for band intensities using ImageJ software. […]

HFD-T2D mice = assay: NAFLD in HFD-fed mice: liver triglycerides, histology, NAS; assay type: in vivo, mouse
Experimental: Gross liver weights were measured and identical sections from the right medial lobe of the liver were dissected for further examinations. Total triglyceride content was determined by homogenization of 10–50 mg of tissue in 1.5 ml of chloroform:methanol (2:1 v/v) followed by centrifugation at 16,260×g for 10 min at 4 °C. A 20 µl of the supernatant was evaporated in a 1.5 ml microcentrifuge tube for 30 min. Triglyceride content was determined by adding 100 µl of Infinity Triglyceride Reagent (Fisher Scientific) to the dried sample followed by 30 min incubation at RT. The samples were then transferred to a 96-well plate along with standards (0–2000 mg/dl) and absorbance was measured at 540 nm and the final concentration was determined by normalizing to tissue weight. For histological examination, liver sections were fixed in 10% zinc formalin and paraffin-embedded for sectioning. Hematoxylin and eosin (H&E) stained sections were then assessed for steatosis grade, lobular inflammation, and hepatocyte ballooning for nonalcoholic fatty liver disease (NAFLD) scoring[46],[95],[96].

Question: For `CCCCC1(C2CCCC2)Cc2cc(OCCCC(=O)O)c(Cl)c(Cl)c2C1=O` (stereo not drawn) [SN-401, 4-((2-butyl-6,7-dichloro-2-cyclopentyl-1-oxo-2,3-dihydro-1H-inden-5-yl)oxy)butanoic acid], which “SWELL1 induction in skeletal muscle” value (SWELL1 protein; HFD-T2D mice (18 weeks HFD), 5 mg/kg i.p. 4 days) is on record?
Answer: Its value is “trend toward SN-401 mediated SWELL1 induction”.

Question: What about the “hepatic SWELL1 protein” value (SWELL1 protein; T2D KKAy mice, 5 mg/kg i.p. 5 days) of the same compound?
Answer: The value was “does not induce”.

Question: What about the “reduction in body weight compared to vehicle” value (HFD-T2D mice; 16 weeks HFD then intermittent dosing over 5 weeks) of the same compound?
Answer: The value was 14%.

Question: What about the “improvement of NAFLD-activity score (NAS)” value (HFD-T2D mice; 16 weeks HFD then intermittent dosing over 5 weeks, vs vehicle) of the same compound?
Answer: The value was > 2 points.

Question: And the “hepatic steatosis and hepatocyte damage” value (HFD-T2D mice; histologic evaluation, vs vehicle)?
Answer: Its value is “significant reductions”.

Question: What about the hepatic triglyceride concentrations (HFD-T2D mice; vs vehicle) of the same compound?
Answer: Its hepatic triglyceride concentrations is “lower”.
